This experiment addresses recombinant human integrin αVβ6 (Homo sapiens (Human), UniProt P06756+P18564). In words: Solid phase integrin αVβ6 binding assay. The conditions noted are these: recombinant TGFβ1 LAP as ligand, values given as ranges, read-out: αVβ6 Inhibition IC50 (nM) - range. On the procedure:
Example B1—Solid Phase Integrin αVβ6 Binding Assay
Microplates were coated with recombinant human integrin αVβ6 (2 μg/mL) in PBS (100 μL/well 25 OC, overnight). The coating solution was removed, washed with wash buffer (0.05% Tween 20; 0.5 mM MnCl2; in 1×TBS). Plate was blocked with 200 μL/well of Block Buffer (1% BSA; 5% sucrose; 0.5 mM MnCl2; in 1×TBS) at 37° C. for 2 h. Dilutions of testing compounds and recombinant TGFβ1 LAP (0.67 μg/mL) in binding buffer (0.05% BSA; 2.5% sucrose; 0.5 mM MnCl2; in 1×TBS) were added. The plate was incubated for 2 hours at 25° C., washed, and incubated for 1 hour with Biotin-Anti-hLAP. Bound antibody was detected by peroxidase-conjugated streptavidin. The IC50 values for testing compounds were calculated by a four-parameter logistic regression.
The compounds tested were compound samples prepared according to procedures described in the Synthetic Examples section, with the stereochemical purity as indicated in the Examples.

Bounds are passed on as bounds.

Chain of recombinant human integrin αVβ6 (P06756 31-992): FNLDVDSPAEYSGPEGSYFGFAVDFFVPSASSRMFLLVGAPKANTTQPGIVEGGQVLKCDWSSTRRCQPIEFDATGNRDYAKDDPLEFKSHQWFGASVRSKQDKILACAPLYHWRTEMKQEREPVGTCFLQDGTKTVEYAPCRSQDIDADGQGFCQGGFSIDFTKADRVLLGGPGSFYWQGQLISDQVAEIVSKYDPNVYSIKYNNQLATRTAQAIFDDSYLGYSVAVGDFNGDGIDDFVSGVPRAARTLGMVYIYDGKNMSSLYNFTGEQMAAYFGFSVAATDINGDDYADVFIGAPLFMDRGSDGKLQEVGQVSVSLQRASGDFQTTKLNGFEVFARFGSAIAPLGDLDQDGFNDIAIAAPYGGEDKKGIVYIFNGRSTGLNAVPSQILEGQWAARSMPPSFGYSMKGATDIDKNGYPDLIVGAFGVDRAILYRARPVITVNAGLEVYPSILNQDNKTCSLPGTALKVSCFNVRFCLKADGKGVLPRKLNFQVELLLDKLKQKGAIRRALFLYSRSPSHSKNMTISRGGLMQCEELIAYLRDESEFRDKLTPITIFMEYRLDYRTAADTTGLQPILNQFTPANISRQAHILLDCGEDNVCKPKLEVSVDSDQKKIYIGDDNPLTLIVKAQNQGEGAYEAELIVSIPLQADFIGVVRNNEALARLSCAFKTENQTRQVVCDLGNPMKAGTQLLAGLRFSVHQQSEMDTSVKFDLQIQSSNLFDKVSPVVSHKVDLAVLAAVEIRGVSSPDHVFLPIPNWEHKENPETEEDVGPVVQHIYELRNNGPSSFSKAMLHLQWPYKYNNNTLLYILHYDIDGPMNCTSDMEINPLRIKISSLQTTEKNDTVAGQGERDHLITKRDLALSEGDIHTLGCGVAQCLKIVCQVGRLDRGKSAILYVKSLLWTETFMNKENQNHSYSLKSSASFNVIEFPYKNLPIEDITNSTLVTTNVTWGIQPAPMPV
Chain of recombinant human integrin αVβ6 (P18564 22-707): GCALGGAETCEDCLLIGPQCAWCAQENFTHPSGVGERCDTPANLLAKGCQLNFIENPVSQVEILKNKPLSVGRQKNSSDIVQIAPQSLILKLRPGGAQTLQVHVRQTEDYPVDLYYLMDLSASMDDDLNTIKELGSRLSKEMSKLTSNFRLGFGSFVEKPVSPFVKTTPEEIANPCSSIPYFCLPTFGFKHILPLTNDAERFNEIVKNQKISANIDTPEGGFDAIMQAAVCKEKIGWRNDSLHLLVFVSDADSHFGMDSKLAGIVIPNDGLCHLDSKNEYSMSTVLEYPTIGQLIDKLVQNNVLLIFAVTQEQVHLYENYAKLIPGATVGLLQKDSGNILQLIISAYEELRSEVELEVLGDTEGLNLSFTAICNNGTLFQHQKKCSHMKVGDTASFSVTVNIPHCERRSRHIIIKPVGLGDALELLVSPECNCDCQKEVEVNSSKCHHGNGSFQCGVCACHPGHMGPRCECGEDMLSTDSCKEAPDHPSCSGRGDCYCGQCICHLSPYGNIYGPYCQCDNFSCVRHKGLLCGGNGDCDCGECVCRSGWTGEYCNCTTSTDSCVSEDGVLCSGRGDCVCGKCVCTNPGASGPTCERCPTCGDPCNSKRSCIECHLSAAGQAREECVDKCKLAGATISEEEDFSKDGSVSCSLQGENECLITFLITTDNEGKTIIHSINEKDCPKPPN

Usually IC50 stands for the concentration that gives 50% inhibition. Take `CS(=O)(=O)N1CCC(C(=O)N[C@@H](CCCCCCCc2ccc3c(n2)NCCC3)C(=O)O)CC1` [Compound 39, (S)-2-(1-(methylsulfonyl)piperidine-4-carboxamido)-9-(5,6,7,8-tetrahydro-1,8-naphthyridin-2-yl)nonanoic Acid]: the IC50 was less than 50 nM.

Turning to `C[C@@]1(C(=O)N[C@@H](CCCCCCCc2ccc3c(n2)NCCC3)C(=O)O)CCCOC1` (mixture of isomers) [Compound 47, (S)-2-((R)-3-methyltetrahydro-2H-pyran-3-carboxamido)-9-(5,6,7,8-tetrahydro-1,8-naphthyridin-2-yl)nonanoic Acid and (S)-2-((S)-3-methyltetrahydro-2H-pyran-3-carboxamido)-9-(5,6,7,8-tetrahydro-1,8-naphthyridin-2-yl)nonanoic Acid], the IC50 lay within 50 to 250 nM.

Take `CS(=O)(=O)N1CCC[C@@H](C(=O)N[C@@H](CCCCCCCc2ccc3c(n2)NCCC3)C(=O)O)C1` (mixture of isomers) [Compound 37, (S)-2-((R)-1-(methylsulfonyl)piperidine-3-carboxamido)-9-(5,6,7,8-tetrahydro-1,8-naphthyridin-2-yl)nonanoic acid and (S)-2-((S)-1-(methylsulfonyl)piperidine-3-carboxamido)-9-(5,6,7,8-tetrahydro-1,8-naphthyridin-2-yl)nonanoic Acid]: the IC50 is less than 50 nM.

Regarding `CC1(C(=O)N[C@@H](CCCCCCCc2ccc3c(n2)NCCC3)C(=O)O)CCOCC1` [Compound 8, (S)-2-(4-methyltetrahydro-2H-pyran-4-carboxamido)-9-(5,6,7,8-tetrahydro-1,8-naphthyridin-2-yl)nonanoic Acid], the IC50 was less than 50 nM.

Take `CS(=O)(=O)CCCC(=O)N[C@@H](CCCCCCCc1ccc2c(n1)NCCC2)C(=O)O` [Compound 24, (S)-2-(4-(methylsulfonyl)butanamido)-9-(5,6,7,8-tetrahydro-1,8-naphthyridin-2-yl)nonanoic Acid]: the IC50 was in the range of 251 to 1000 nM.

As for `COCCCC(=O)N[C@@H](CCCCCCCc1ccc2c(n1)NCCC2)C(=O)O` [Compound 30, (S)-2-(4-methoxybutanamido)-9-(5,6,7,8-tetrahydro-1,8-naphthyridin-2-yl)nonanoic Acid], the IC50 is 251 to 1000 nM.

For `O=C(N[C@@H](CCCCCCCc1ccc2c(n1)NCCC2)C(=O)O)C1CC2CCC(C1)O2` (stereo partly drawn) [Compound 43, (S)-2-((1R,3s,5S)-8-oxabicyclo[3.2.1]octane-3-carboxamido)-9-(5,6,7,8-tetrahydro-1,8-naphthyridin-2-yl)nonanoic acid and (S)-2-((1R,3r,5S)-8-oxabicyclo[3.2.1]octane-3-carboxamido)-9-(5,6,7,8-tetrahydro-1,8-naphthyridin-2-yl)nonanoic Acid], the IC50 is less than 50 nM.

`O=C(O)[C@H](CCCCCCCc1ccc2c(n1)NCCC2)NC(=O)C1(C(F)(F)F)CCOCC1` [Compound 42, (S)-9-(5,6,7,8-tetrahydro-1,8-naphthyridin-2-yl)-2-(4-(trifluoromethyl)tetrahydro-2H-pyran-4-carboxamido)nonanoic Acid]: the IC50 was less than 50 nM.

Consider `CC(C)(C)OC(=O)N1CC(C)(OC(=O)N[C@@H](CCCCCCCc2ccc3c(n2)NCCC3)C(=O)O)C1` [Compound 32, (S)-2-((((1-(tert-butoxycarbonyl)-3-methylazetidin-3-yl)oxy)carbonyl)amino)-9-(5,6,7,8-tetrahydro-1,8-naphthyridin-2-yl)nonanoic Acid], for which the IC50 is less than 50 nM.

For `O=C(O)[C@H](CCCCCCCc1ccc2c(n1)NCCC2)NC(=O)C12CC(C1)C2` [Compound 45, (S)-2-(bicyclo[1.1.1]pentane-1-carboxamido)-9-(5,6,7,8-tetrahydro-1,8-naphthyridin-2-yl)nonanoic Acid], the IC50 was less than 50 nM.

On to `CC(=O)N1CCC(C(=O)N[C@@H](CCCCCCCc2ccc3c(n2)NCCC3)C(=O)O)CC1` [Compound 36, (S)-2-(1-acetylpiperidine-4-carboxamido)-9-(5,6,7,8-tetrahydro-1,8-naphthyridin-2-yl)nonanoic Acid], for which the IC50 was 50 to 250 nM.

With `O=C(N[C@@H](CCCCCCCc1ccc2c(n1)NCCC2)C(=O)O)C1CCNCC1` [Compound 34, (S)-2-(piperidine-4-carboxamido)-9-(5,6,7,8-tetrahydro-1,8-naphthyridin-2-yl)nonanoic Acid], the IC50 fell in the range of 50 to 250 nM.

As to `CC1(C(=O)N[C@@H](CCCCCCCc2ccc3c(n2)NCCC3)C(=O)O)CCCCC1` [Compound 44, (S)-2-(1-methylcyclohexanecarboxamido)-9-(5,6,7,8-tetrahydro-1,8-naphthyridin-2-yl)nonanoic Acid], the IC50 was less than 50 nM.

Take `NS(=O)(=O)CCC(=O)N[C@@H](CCCCCCCc1ccc2c(n1)NCCC2)C(=O)O` [Compound 38, (S)-2-(3-sulfamoylpropanamido)-9-(5,6,7,8-tetrahydro-1,8-naphthyridin-2-yl)nonanoic Acid]: the IC50 lay in the range of 251 to 1000 nM.

`O=C(O)[C@H](CCCCCCCc1ccc2c(n1)NCCC2)NC(=O)[C@H]1CCOc2ccccc21` (mixture of isomers) [Compound 46, (S)-2-((S)-chromane-4-carboxamido)-9-(5,6,7,8-tetrahydro-1,8-naphthyridin-2-yl)nonanoic Acid and (S)-2-((R)-chromane-4-carboxamido)-9-(5,6,7,8-tetrahydro-1,8-naphthyridin-2-yl)nonanoic Acid]: the half-inhibitory concentration (IC50) lay within 50 to 250 nM.

The values are drawn from US11396506B2, “Amino acid compounds with unbranched linkers and methods of use” (Pliant Therapeutics, Inc., priority 2018, dated 2022).
